Laboratory results as given in publication PMC7616177, “From structure to clinic: Design of a muscarinic M1 receptor agonist with the potential to treat Alzheimer’s disease” (Cell, 2021).
Like-named read-outs stand apart in the source and are kept apart here.

How the values were obtained:
human M1 receptor [1] = molecular target: T1, human M1 receptor (Homo sapiens, UniProt P11229); test: [3H]-NMS equilibrium radioligand binding, M1
T1 construct: expressed in transfected cells
T1 sequence (P11229 1-460): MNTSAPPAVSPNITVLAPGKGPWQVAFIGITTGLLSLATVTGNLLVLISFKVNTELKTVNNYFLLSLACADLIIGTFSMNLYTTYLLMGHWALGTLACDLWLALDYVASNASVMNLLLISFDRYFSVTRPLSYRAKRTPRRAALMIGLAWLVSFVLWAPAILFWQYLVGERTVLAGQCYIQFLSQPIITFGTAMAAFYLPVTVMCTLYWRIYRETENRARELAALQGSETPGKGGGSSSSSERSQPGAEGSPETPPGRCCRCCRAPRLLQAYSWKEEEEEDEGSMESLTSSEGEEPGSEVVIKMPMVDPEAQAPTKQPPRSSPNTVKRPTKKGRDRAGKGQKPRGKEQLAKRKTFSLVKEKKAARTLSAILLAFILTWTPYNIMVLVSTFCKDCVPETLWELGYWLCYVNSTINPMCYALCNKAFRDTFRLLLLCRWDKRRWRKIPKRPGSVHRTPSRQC
Description: Non-specific binding (NSB) was determined in the presence of 1 μM atropine). Reactions were terminated by rapid filtration onto GF/B filter paper (Whatman, Maidstone, UK) and three washes with 3 mL ice-cold 0.9% NaCl using a Brandel harvester (M-24TI; Brandel, Fort Lauderdale, FL). Membrane bound radioactivity was determined by liquid scintillation (Ultima Gold; PerkinElmer) counting.
Data was analyzed using PRISM (GraphPad). For saturation binding, non-specific and total binding data were analyzed to a one site binding model. DPM was converted to fmol/mg to compare across constructs. […] […] The Cheng Prusoff equation was used to estimate pKi ([Cheng and Prusoff, 1973]).

human M1 receptor [2] = molecular target: T1, human M1 receptor; test: Interaction with ACh in IP1 assay after phenoxybenzamine receptor depletion (Schild); assay type: cell-based
aged beagle dogs = test: Delayed non-matching to position (DNMP) in aged beagle dogs; assay type: in vivo, dog; settings: aged beagles
Description: Animals were acclimatised in the testing facility for at least 3 months. During baseline days (days −12 to −8), 50 dogs underwent DNMP testing once daily using delays of 20 and 90 s equally dispersed over 12 trials per session.
These 40 subjects were tested on the DNMP using delays of 5, 55 and 105 s equally dispersed over 18 trials per session over five once-daily sessions (days −6 to −2). Therefore, baseline testing was conducted for a total of 10 days.
These dogs were then allocated into 5 groups, balanced for mean baseline performance accuracy at the longest delays (n = 8 per group). […] Daily treatment administration began on day 0, and dogs were tested once daily on the DNMP at the same delays employed at baseline for a minimum of 10 days. Each test consisted of two phases; in phase one, the dog is presented with an object over one of the three food wells. After the dog moves the object and obtains the food reward beneath, the tray is removed from the dog’s sight and the delay is initiated. The second phase occurs after the delay and consists of presenting the dog with two identical objects to that used in the first phase. One is in the same position as the first phase and the other covers a food reward in one of the two remaining food wells.

[3] = Modified Irwin Functional Observation Battery; assay type: in vivo; settings: plasma; rat, 100 mg/kg oral
rats = test: Modified Irwin Functional Observation Battery; assay type: in vivo; settings: rat
[4] = Human plasma and CSF pharmacokinetics after single oral dose; assay type: in vivo; settings: single 54 mg oral dose
healthy volunteers = test: Clinical EEG/ERP P300 active auditory oddball paradigm; assay type: in vivo; settings: human multiple dosing, high exposure group, day 9
Description: Routine EEG was performed for all subjects during screening enrolled in the multiple ascending dose study to avoid enrolling subjects showing clinically significant abnormalities. 19-lead EEG recordings were employed for quantitative (qEEG) analyses. qEEGs were are recorded in resting state with alternating 30 s eyes open and 30 s eyes closed for 5 min first and then about 5 min eyes closed. The P50 protocol employed a series of “click pairs.” The interval between click pairs is at random between 6 to 10 s (Stimuli S1 and S2, 1000 Hz, duration 3 ms, 80 dB sound pressure level [SPL], stimulus onset asynchrony [SOA] = 500 ms, The MMN protocol used twelve different frequencies ranging in 50 Hz steps from 700 to 1250 Hz delivered binaurally via special headphones or earphones. All stimuli were presented with a constant SOA of 300 ms in a pseudo-randomized order assuming a frequency deviation of one train to another of at least 100 Hz with three different lengths/durations of series which occurred evenly. For the P300 active auditory oddball paradigm sinusoidal tones of 90 dB SPL intensity and 50 ms duration were delivered binaurally in an inter-stimulus-interval of 1000 msec. The standard stimulus, a low frequency tone (1000 Hz) appeared with a frequency of 85%. […]

[5] = 4-day repeat dose tolerability assessment in dogs; settings: beagle, dog

SMILES: CCOC(=O)N1CCC[C@H](N2CCC(C(=O)NC3(C)CCC3)CC2)CC1 [HTL9936, ethyl (S)-4-(4-((1-methylcyclobutyl)carbamoyl)piperidin-1-yl)azepane-1-carboxylate]
- Ki (human M1 receptor [1]): 20 µM
- Kb (human M1 receptor [2]): 6.31 µM
- Visual-spatial memory (DNMP performance) (aged beagle dogs; 0.3 mg/kg and 1 mg/kg s.c.): Significant improvements in visual-spatial memory
- Effect compared with donepezil (aged beagle dogs; 1 mg/kg s.c.): equivalent to that of donepezil
- Cmax [3]: 6400 ng/mL
- Cu,pl (rats; 100 mg/kg oral): 11,994 nM
- Seizure-like effects (rats; oral dosing up to 100 mg/kg): complete absence of seizure-like effects
- Tmax ([4]; CSF, read-out: Time of maximum concentration in CSF): 2 to 3 h
- Tmax ([4]; plasma, read-out: Plasma tmax): ~0.5 h
- P300 deviant amplitude at electrodes Fz and Cz (healthy volunteers): significant within- and between-group effects for deviant amplitude
- Cmax at 4 day ([5]; plasma): > 32000 ng/mL
- concentration at 4 day ([5]; plasma (unbound)): 60 µM
